Reference: patent US20160038519A1, “ADMINISTRATION OF KARENITECIN FOR THE TREATMENT OF ADVANCED OVARIAN CANCER, INCLUDING CHEMOTHERAPY-RESISTANT AND/OR THE MUCINOUS ADENOCARCINOMA SUB-TYPES” (BioNumerik Pharmaceuticals, Inc., priority 2014, published 2016)
“Also recorded” adds a separate entry of the source. Like-named read-outs stand apart in the source and are kept apart here.

How the values were obtained:
advanced ovarian cancer = test: Phase II study in advanced ovarian cancer after failed prior treatments; assay type: in vivo, human
OMC3 Cell Line = test: SRB cytotoxicity assay, OMC3; assay type: cell-based, human; conditions: Homo sapiens
Protocol: (§1) In vitro studies were conducted in human mucinous ovarian cancer cell lines including JHOM2B, OMC3, and COV644. In one series of experiments, the dose response curves for BNP1350 (also known as Karenitecin), SN-38 (Irinotecan), and Topotecan were obtained and IC50 values were determined. In a second series of experiments, the effect of BNP7787 (2,2′-dithio-bis-ethane sulfonate; Tavocept) on BNP1350-induced cytotoxicity at selected BNP1350 concentrations was examined.
(§2) The JHOM2B and OMC3 cell lines were purchased from Riken Cell Bank (Japan). The COV644 cell line was purchased from SigmaAldrich. Cells were maintained as monolayered cultures in T-75 flasks and then seeded to microtiter plate wells for experiments. Population doubling-times for these three cell lines were long (i.e., exceeding 40 hours, and for some of the cell lines approaching 96 hours); therefore, the Applicants conducted initial pilot experiments and determined optimal seeding density to obtain A570 values in untreated controls that would fall within the linear range of the SRB assay after seven (7) total days of cell growth. JHOM2B cells were cultured in DMEM:F12 (1:1)+0.1 mM non-essential amino acids (NEAA)+10% FBS and were seeded at 6,000 cells per well. OMC3 cells were cultured in HamF12+10% FBS and were seeded at 8,000 cells per well. COV644 cells were cultured in DMEM+2 mM glutamine+10% FBS and were seeded at 6,000 cells per well.
(§3) The cells were manipulated in a Microzone laminar flow hood traditionally used for maintaining aseptic environments around automated instrumentation such as microplate robots, and the like. Cells were grown and maintained at 37° C. in a humidified atmosphere containing 5% CO2 in a water jacketed cell culture incubator (Forma Scientific). Cells were counted using a ViCell counter (Beckman-Coulter). An automated plate washer/stacker (ELx405/BioStak from BioTek Instruments) and a microplate reader (SpectraMax Plus from Molecular Devices) were used for conducting the SRB assay and determining A570 values for wells in the plates and the percentage of control values. Prior to SRB assays, cell viability was monitored by evaluation of microtiter plate wells. Dead cells detach and float while living cells remain attached to the bottom of the cell well.
(§4) SN-38 (Irinotecan; Sigma H0165, lot MKBQ4981) and Topotecan (Sigma T2705, lot 052M4728V) were purchased from SigmaAldrich. BNP1350 (lot KN-C192-135) and BNP7787 (lot 205001) were synthesized at BioNumerik Pharmaceuticals, Inc. (San Antonio, Tex.). BNP1350, SN38, and Topotecan were prepared as 2.5, 2.5, and 25 mM stocks in DMSO (ATCC, cell culture grade).
(§5) The sulforhodamine B (SRB) cytotoxicity assay was used to assess cell survival. Briefly, after the medium was decanted from individual plate wells, trichloroacetic acid (100 μL of 10.0 percent solution) was added to each well, and the plates were incubated at 4° C. for 1 hour. The plates were washed five times with water using an automated microplate washer (Model ELx405, Bio-Tek Instruments), SRB solution (100 μL of 0.4% SRB dissolved in 1.0 percent acetic acid) was added, and plates remained at room temperature for 15 minutes. The plates were then washed five times using acetic acid (1.0 percent), air dried, and bound dye was solubilized in Tris base (150 μL, 10 mM). Plates were agitated (gently) for 5 minutes and the absorbance values of the SRB dye-protein adduct at 570 nanometers (A570) were determined using an automated microtiter plate reader (SpectraMax Plus, Molecular Devices). IC50 values were extrapolated from dose response curves of the data using OriginLab Software.

[1] = Phase I clinical studies of intravenous Karenitecin; assay type: in vivo, human
Protocol: Results from three Phase I studies indicate that Karenitecin can be safely administered to subjects at the dose level of 1.0 mg/m^2/day i.v. over a one hour period of time for 5 consecutive days in a 3-week treatment cycle. […] Any gastrointestinal toxicity is generally ≦grade 2 and is not dose-limiting.
Intravenous administration of Karenitecin has been evaluated in three Phase I clinical studies in subjects with the following cancer types: (i) advanced solid tumors (adult subjects) (see, e.g., Schilsky, R. L., Hausheer, F. H., et al., Phase I trial of karenitecin administered intravenously daily for five consecutive days in subjects with advanced solid tumors using accelerated dose titration [abstract]. ASCO Abstract 758 (2000)); (ii) refractory or recurrent solid tumors (pediatric subjects); and (iii) recurrent malignant glioma (adult subjects). Intravenous administration of Karenitecin has also been evaluated in four Phase 2 clinical studies in adult subjects with the following cancer types: (i) primary malignant glioma; (ii) third-line treatment of persistent or recurrent epithelial ovarian or primary peritoneal carcinoma; (iii) malignant melanoma (see, e.g., Hausheer, F. H., et al., Phase II trial of Karenitecin (BNP1350) in malignant melanoma: clinical and translational study [abstract]. ASCO Abstract 7554 (2004); and (iv) relapsed or refractory non-small cell lung cancer (see, e.g., Miller, A. A., et al., MR for the Cancer and Leukemia Group B. Phase II trial of karenitecin in subjects with relapsed or refractory non-small cell lung cancer (CALGB 30004) Lung Cancer 48:399-407 (2005)).

JHOM2B Cell Line = test: SRB cytotoxicity assay, JHOM2B; assay type: cell-based, human; conditions: Homo sapiens
Protocol: as §1, §2, §3, §4, §5

[2] = system: panel of over twenty (20) human cancer cell lines; test: In vitro studies on a panel of over twenty human cancer cell lines; assay type: cell-based
solid tumors = conditions: for Time on trial with no evidence of progressive disease: oral
Protocol: A Phase I clinical trial (the “Oral Karenitecin Phase I Trial”) was performed to determine the maximum tolerated dose (MTD) of oral Karenitecin in subjects with solid tumors given in a dose-escalated manner (starting at 0.5 mg/m^2) and administered 3-times per week (MWF or TTS) for 3 consecutive weeks followed by a one-week treatment rest.
In Stage I, subjects received Karenitecin as a single oral dose 3 times per week for 3 consecutive weeks followed by a one-week treatment rest. In Stage 1, some of subjects underwent pharmacokinetic sampling, and first received a single i.v. dose of Karenitecin (at the appropriate dosage level) followed by oral Karenitecin 4 to 7 days following the i.v. dose on a MWF or TTS schedule. Patients then received oral Karenitecin for all subsequent treatments.
In Stage 2, Karenitecin was administered in a dose-escalated manner to approximately 16 subjects with solid tumors in order to determine the maximum tolerated dose (MTD). The initial dose escalation involved cohorts of one new subject per dose level. The starting dose was 0.5 mg/m^2 and dose escalation proceeded in 0.5 mg/m^2 increments. One-subject cohorts were utilized until the occurrence of a dose-limiting toxicity (DLT) or NCI CTCAE≧grade 2 toxicity was observed during the DLT observation period. Patients in Stage 2 received oral Karenitecin at the appropriate dose level on a MTWTF schedule for three (3) consecutive weeks, followed by a one-week rest period.

[3] = Lactone stability in humans; assay type: in vivo, human
Fischer rats = conditions: rat, in vivo, iv
[4] = 2 hour drug exposure, average of Test 1 and Test 2, read-out: IC50, Average
[5] = 2 hour drug exposure, read-out: IC50, Test 1 (2 replicate plates)
[6] = 2 hour drug exposure, read-out: IC50, Test 2 (3 replicate plates)

CC[C@@]1(O)C(=O)OCc2c1cc1n(c2=O)Cc2c-1nc1ccccc1c2CC[Si](C)(C)C [Karenitecin, (4S)-4-ethyl-4-hydroxy-11-[2-(trimethylsilyl)ethyl]-1H-pyrano[3′:4′:6,7]indolizino[1,2-b]quinoline-3,14(4H,12H)-dione]
Time to Progression (TTP) compared with historical results reported with Topotecan (advanced ovarian cancer): prolonged | IC50 (OMC3 Cell Line; [4]): 0.0495 µM | IC50 (OMC3 Cell Line; [5]): 0.057 ± 0.004 µM | IC50 (OMC3 Cell Line; [6]): 0.042 ± 0.006 µM | IC50 (OMC3 Cell Line; read-out: IC50 values): 0.0495 µM | Gastrointestinal toxicity grade ([1]; i.v. 1.0 mg/m^2/day x5, 3-week cycle, not dose-limiting): ≤ 2 grade | Dose-limiting toxicity ([1]; i.v., Phase I clinical studies): non-cumulative, reversible myelosuppression; also recorded: reversible and non-cumulative neutropenia and thrombocytopenia | Hypersensitivity reactions reported by subjects ([1]; to date): no hypersensitivity reactions | IC50 (JHOM2B Cell Line; [4]): 0.0695 µM | IC50 (JHOM2B Cell Line; [5]): 0.061 ± 0.004 µM | IC50 (JHOM2B Cell Line; [6]): 0.078 ± 0.009 µM | IC50 (JHOM2B Cell Line; read-out: IC50 values): 0.0695 µM | Antitumor potency compared with Topotecan or SN-38 [2]: significantly more potent | Tolerability of oral administration (solid tumors; in vivo, po): generally well-tolerated | Time on trial with no evidence of progressive disease (solid tumors; a patient with advanced ovarian cancer): approximately 16 months | Time on trial with no evidence of progressive disease (solid tumors; a patient with breast cancer): approximately 19.5 months | Time on trial with no evidence of progressive disease (solid tumors; a patient with carcinoma of the parotid gland): approximately 12 months | Time on trial with no evidence of progressive disease (solid tumors; a patient with colorectal cancer): approximately 8 months | Time on trial with no evidence of progressive disease (solid tumors; a patient with leiomyosarcoma): approximately 7 months | Time on trial with no evidence of progressive disease (solid tumors; a patient with melanoma): approximately 15 months | Time on trial with no evidence of progressive disease (solid tumors; a patient with neuroendocrine cancer): approximately 23 months | Time on trial with no evidence of progressive disease (solid tumors; a patient with non-small cell lung cancer): approximately 36 months | Time on trial with no evidence of progressive disease (solid tumors; a patient with pancreatic cancer): approximately 7 months | Time on trial with no evidence of progressive disease (solid tumors; a patient with peritoneal papillary adenocarcinoma cancer): approximately 8 months | Time on trial with no evidence of progressive disease (solid tumors; a patient with prostate cancer): approximately 7 months | Time on trial with no evidence of progressive disease (solid tumors; a patient with refractory small cell cancer): approximately 6 months | Time on trial with no evidence of progressive disease (solid tumors; a patient with sarcoma): approximately 9 months | Lactone stability [3]: approximately 85% | Toxicities observed (Fischer rats): reversible myelosuppression (predominantly neutropenia)
